According to paper PMC9974930 (Journal of medicinal chemistry, 2023):

biological target: T1, recombinant human sEH (HsEH) (Homo sapiens, UniProt P34913); experiment: biochemical; conditions: not given
T1 sequence (P34913 1-555): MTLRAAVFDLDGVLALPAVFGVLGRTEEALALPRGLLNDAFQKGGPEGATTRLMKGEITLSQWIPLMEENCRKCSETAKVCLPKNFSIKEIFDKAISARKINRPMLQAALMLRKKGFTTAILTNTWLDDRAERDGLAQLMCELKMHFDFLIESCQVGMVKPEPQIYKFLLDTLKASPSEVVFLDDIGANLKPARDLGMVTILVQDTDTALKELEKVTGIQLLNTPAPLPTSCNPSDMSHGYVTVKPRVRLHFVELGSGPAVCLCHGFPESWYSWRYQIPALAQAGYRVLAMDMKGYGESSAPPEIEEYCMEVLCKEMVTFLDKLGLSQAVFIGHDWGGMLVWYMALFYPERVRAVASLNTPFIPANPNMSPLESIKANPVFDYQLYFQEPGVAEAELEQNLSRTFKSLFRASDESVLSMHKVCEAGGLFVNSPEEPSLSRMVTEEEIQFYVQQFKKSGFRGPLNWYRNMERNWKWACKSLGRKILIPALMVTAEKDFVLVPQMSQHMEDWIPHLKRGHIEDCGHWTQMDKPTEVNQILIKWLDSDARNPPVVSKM

Row | SMILES | IC50 [nM]
1 | CCC(=O)N1CCC(CC(=O)N2CCCN(Cc3ccc(NC(=O)N[C@@]45C[C@@H]6C[C@@](C)(C[C@@](C)(C6)C4)C5)c(F)c3)CC2)CC1 [I2, 1-((1r,3R,5S,7r)-3,5-Dimethyladamantan-1-yl)-3-(2-fluoro-4-((4-(2-(1-propionylpiperidin-4-yl)acetyl)-1,4-diazepan-1-yl)methyl)phenyl)urea] | 0.35
2 | C[C@]12C[C@@H]3C[C@](C)(C1)C[C@@](NC(=O)Nc1ccc(C(=O)N4CCCC(C(=O)O)C4)cc1F)(C3)C2 (stereo partly drawn) [A, 1-(4-(3-((1r,3R,5S,7r)-3,5-Dimethyladamantan-1-yl)ureido)-3-fluorobenzoyl)piperidine-3-carboxylic acid] | 4

same assay, conditions: LLE = pIC50-cLogP

Row | SMILES | LLE (ligand lipophilicity efficiency)
3 | CC(O)CNC(=O)C1CCN(C(=O)c2ccc(NC(=O)N[C@@]34C[C@@H]5C[C@@](C)(C[C@@](C)(C5)C3)C4)c(F)c2)CC1 (stereo partly drawn) [A3, 1-(4-(3-((1r,3R,5S,7r)-3,5-Dimethyladamantan-1-yl)ureido)-3-fluorobenzoyl)-N-(2-hydroxypropyl)piperidine-4-carboxamide] | 5.708
4 | C[C@]12C[C@@H]3C[C@](C)(C1)C[C@@](NC(=O)Nc1ccc(C(=O)N4CCC(C(=O)NCCO)CC4)cc1F)(C3)C2 [A2, 1-(4-(3-((1r,3R,5S,7r)-3,5-Dimethyladamantan-1-yl)ureido)-3-fluorobenzoyl)-N-(2-hydroxyethyl)piperidine-4-carboxamide] | 6.203
5 | CCC(C)C(=O)N1CCC(CC(=O)N2CCCN(Cc3ccc(NC(=O)N[C@@]45C[C@@H]6C[C@@](C)(C[C@@](C)(C6)C4)C5)c(F)c3)CC2)CC1 (stereo partly drawn) [I3, 1-((1r,3R,5S,7r)-3,5-Dimethyladamantan-1-yl)-3-(2-fluoro-4-((4-(2-(1-(2-methylbutanoyl)piperidin-4-yl)acetyl)-1,4-diazepan-1-yl)methyl)phenyl)urea] | 4.337
6 | C[C@]12C[C@@H]3C[C@](C)(C1)C[C@@](NC(=O)Nc1ccc(C(=O)NC4CCC(C(=O)NC(CO)CO)CC4)cc1F)(C3)C2 (stereo partly drawn) [C7, N-(4-((1,3-Dihydroxypropan-2-yl)carbamoyl)cyclohexyl)-4-(3-((1r,3R,5S,7r)-3,5-dimethyladamantan-1-yl)ureido)-3-fluorobenzamide] | 6.555
7 | COC(=O)N1CCC(CC(=O)N2CCCN(Cc3ccc(NC(=O)N[C@@]45C[C@@H]6C[C@@](C)(C[C@@](C)(C6)C4)C5)c(F)c3)CC2)CC1 [I4, Methyl-4-(2-(4-(4-(3-((1r,3R,5S,7r)-3,5-dimethyladamantan-1-yl)ureido)-3-fluorobenzyl)-1,4-diazepan-1-yl)-2-oxoethyl)piperidine-1-carboxylate] | 5.125
8 | CCC(=O)N1CCC(CC(=O)N2CCCN(Cc3ccc(NC(=O)N[C@@]45C[C@@H]6C[C@@](C)(C[C@@](C)(C6)C4)C5)c(F)c3)CC2)CC1 [I2, 1-((1r,3R,5S,7r)-3,5-Dimethyladamantan-1-yl)-3-(2-fluoro-4-((4-(2-(1-propionylpiperidin-4-yl)acetyl)-1,4-diazepan-1-yl)methyl)phenyl)urea] | 5.623
9 | C[C@]12C[C@@H]3C[C@](C)(C1)C[C@@](NC(=O)Nc1ccc(CN4CCC(C(=O)N(CCO)CCO)CC4)cc1F)(C3)C2 [E5, 1-(4-(3-((1r,7r)-3,5-Dimethyladamantan-1-yl)ureido)-3-fluorobenzyl)-N,N-bis(2-hydroxyethyl)piperidine-4-carboxamide] | 5.585
10 | CC(O)CNC(=O)C1CCCN(Cc2ccc(NC(=O)N[C@@]34C[C@@H]5C[C@@](C)(C[C@@](C)(C5)C3)C4)c(F)c2)C1 (stereo partly drawn) [D4, 1-(4-(3-((1r,3R,5S,7r)-3,5-Dimethyladamantan-1-yl)ureido)-3-fluorobenzyl)-N-(2-hydroxypropyl)piperidine-3-carboxamide] | 6.119
11 | C[C@]12C[C@@H]3C[C@](C)(C1)C[C@@](NC(=O)Nc1ccc(CN4CCCN(C(=O)CC5CCN(CCO)CC5)CC4)cc1F)(C3)C2 [I5, 1-((1r,3R,5S,7r)-3,5-Dimethyladamantan-1-yl)-3-(2-fluoro-4-((4-(2-(1-(2-hydroxyethyl)piperidin-4-yl)acetyl)-1,4-diazepan-1-yl)methyl)phenyl)urea] | 4.937
12 | CCC(C)C(=O)N1CCCN(C(=O)C2CCCN(Cc3ccc(NC(=O)N[C@@]45C[C@@H]6C[C@@](C)(C[C@@](C)(C6)C4)C5)c(F)c3)C2)CC1 (stereo partly drawn) [G2, 1-((1r,3R,5S,7r)-3,5-Dimethyladamantan-1-yl)-3-(2-fluoro-4-((3-(4-(2-methylbutanoyl) −1,4-diazepane-1-carbonyl)piperidin-1-yl)methyl)phenyl)urea] | 4.986
13 | CCN(CC)C(=O)C1CCN(C(=O)c2ccc(NC(=O)N[C@@]34C[C@@H]5C[C@@](C)(C[C@@](C)(C5)C3)C4)c(F)c2)CC1 [A1, 1-(4-(3-((1r,3R,5S,7r)-3,5-Dimethyladamantan-1-yl)ureido)-3-fluorobenzoyl)-N,N-diethylpiperidine-4-carboxamide] | 4.954
14 | CN(C)C(=O)C1CCCN(Cc2ccc(NC(=O)N[C@@]34C[C@@H]5C[C@@](C)(C[C@@](C)(C5)C3)C4)c(F)c2)C1 (stereo partly drawn) [D2, 1-(4-(3-((1r,3R,5S,7r)-3,5-Dimethyladamantan-1-yl)ureido)-3-fluorobenzyl)-N,N-dimethylpiperidine-3-carboxamide] | 5.354
15 | C[C@]12C[C@@H]3C[C@](C)(C1)C[C@@](NC(=O)Nc1ccc(CN4CCC(C(=O)NC(CO)(CO)CO)CC4)cc1F)(C3)C2 [E4, N-(1,3-Dihydroxy-2-(hydroxymethyl)propan-2-yl)-1-(4-(3-((1r,7r)-3,5-dimethyladamantan-1-yl)ureido)-3-fluorobenzyl)piperidine-4-carboxamide] | 6.459
16 | CC(O)CNC(=O)C1CCCN(C(=O)c2ccc(NC(=O)N[C@]34C[C@@H]5C[C@@](C)(C[C@@](C)(C5)C3)C4)c(F)c2)C1 (stereo partly drawn) [B3, 1-(4-(3-((1r,3R,5S,7S)-3,5-Dimethyladamantan-1-yl)ureido)-3-fluorobenzoyl)-N-(2-hydroxypropyl)piperidine-3-carboxamide] | 6.779
17 | C[C@]12C[C@@H]3C[C@](C)(C1)C[C@@](NC(=O)Nc1ccc(C(=O)N4CCCC(C(=O)O)C4)cc1F)(C3)C2 (stereo partly drawn) [A, 1-(4-(3-((1r,3R,5S,7r)-3,5-Dimethyladamantan-1-yl)ureido)-3-fluorobenzoyl)piperidine-3-carboxylic acid] | 4.979
18 | C[C@]12C[C@@H]3C[C@](C)(C1)C[C@@](NC(=O)Nc1ccc(CN4CCCC(C(=O)NCCO)C4)cc1F)(C3)C2 (stereo partly drawn) [D6, 1-(4-(3-((1r,3R,5S,7r)-3,5-Dimethyladamantan-1-yl)ureido)-3-fluorobenzyl)-N-(2-hydroxyethyl)piperidine-3-carboxamide] | 6.145
19 | CN(C)CCN1CCC(CC(=O)N2CCCN(Cc3ccc(NC(=O)N[C@@]45C[C@@H]6C[C@@](C)(C[C@@](C)(C6)C4)C5)c(F)c3)CC2)CC1 [I7, 1-((1r,3R,5S,7r)-3,5-Dimethyladamantan-1-yl)-3-(4-((4-(2-(1-(2-(dimethylamino)ethyl)piperidin-4-yl)acetyl)-1,4-diazepan-1-yl)methyl)-2-fluorophenyl)urea] | 4.517
20 | CCN(CC)C(=O)C1CCCN(Cc2ccc(NC(=O)N[C@@]34C[C@@H]5C[C@@](C)(C[C@@](C)(C5)C3)C4)c(F)c2)C1 (stereo partly drawn) [D3, 1-(4-(3-((1r,3R,5S,7r)-3,5-Dimethyladamantan-1-yl)ureido)-3-fluorobenzyl)-N,N-diethylpiperidine-3-carboxamide] | 4.957
